Results on 17 compounds are retold here after article PMC8119466, “A screen of FDA-approved drugs identifies inhibitors of protein tyrosine phosphatase 4A3 (PTP4A3 or PRL-3)” (Scientific Reports, 2021).

Structures can show the parent of a compound that is named as a salt. Where two headings read alike, the source gives them in different places.

What all share (assay type): biochemical
Test [1] has as its target T1, recombinant PRL-2 (Homo sapiens, UniProt Q12974).
T1 construct: 6xHis (N, cleaved yes); made in house; host or cells: E. coli One Shot BL21 Star
T1 sequence (Q12974 1-167): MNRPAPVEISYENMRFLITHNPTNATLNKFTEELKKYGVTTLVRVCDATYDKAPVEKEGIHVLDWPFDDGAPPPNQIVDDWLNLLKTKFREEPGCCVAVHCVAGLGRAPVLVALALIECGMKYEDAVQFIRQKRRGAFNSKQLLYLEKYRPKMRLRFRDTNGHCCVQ
Nature of the test: In vitro phosphatase assay (DiFMUP hydrolysis), PRL-2.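 Further: PRL-2 activity read as DiFMUP hydrolysis after 20 min at room temperature with drug, enzyme first pre-reduced at 4 °C for 20 min.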

Test [2] has as its target T2, recombinant PRL-1 (Homo sapiens, UniProt Q93096).
T2 construct: 6xHis (N, cleaved yes); made in house; host or cells: E. coli One Shot BL21 Star
T2 sequence (Q93096 1-173): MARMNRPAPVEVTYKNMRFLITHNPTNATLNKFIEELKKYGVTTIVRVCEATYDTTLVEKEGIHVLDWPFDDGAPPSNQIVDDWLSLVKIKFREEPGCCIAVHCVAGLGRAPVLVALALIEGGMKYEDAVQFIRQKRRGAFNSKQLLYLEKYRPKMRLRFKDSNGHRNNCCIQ
Nature of the test: In vitro phosphatase assay (DiFMUP hydrolysis), PRL-1. Further: test concentration or dose not given here.

Test [3] concerns the target T3, recombinant PRL-3 (Homo sapiens, UniProt O75365).
T3 construct: 6xHis (N, cleaved yes); made in house; host or cells: E. coli One Shot BL21 Star
Nature of the test: In vitro phosphatase assay (DiFMUP hydrolysis), PRL-3. Further: test concentration or dose not given here.

[4] abbreviates: FDA-approved drug screen, compared to DMSO.
[5] abbreviates: FDA-approved drug screen, activity compared to DMSO.

T3 sequence (O75365 whole entry): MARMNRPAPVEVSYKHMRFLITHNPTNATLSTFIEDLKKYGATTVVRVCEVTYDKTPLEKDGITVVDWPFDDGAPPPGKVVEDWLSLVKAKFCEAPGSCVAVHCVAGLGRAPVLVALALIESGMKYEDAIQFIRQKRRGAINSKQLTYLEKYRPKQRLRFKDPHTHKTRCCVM

Take `COc1ccc(C(=O)NCc2ccc(OCCN(C)C)cc2)cc1OC.Cl` [Itopride hydrochloride]: the “% Phosphatase Activity (compared to DMSO) PRL-2” value in test [1] (setting [4]) was 115%. In test [2] (setting [4]), the “% Phosphatase Activity (compared to DMSO) PRL-1” value turned out to be 95%. In test [3] (setting [4]), the “% Phosphatase Activity (compared to DMSO) PRL-3” value was 80%.

As for `C1N2CN3CN1CN(C2)C3` [Methenamine], the “% Phosphatase Activity (compared to DMSO) PRL-2” value in test [1] (setting [4]) is given as 109%. Also, the “% Phosphatase Activity (compared to DMSO) PRL-1” value in test [2] (setting [4]) is 112%. Moreover, the “% Phosphatase Activity (compared to DMSO) PRL-3” value in test [3] (setting [4]) came out at 87%.

As to `Nc1cccc2c1CN(C1CCC(=O)NC1=O)C2=O` (stereo not drawn) [Lenalidomide (CC-5013)], the “% Phosphatase Activity (compared to DMSO) PRL-2” value in test [1] (setting [4]) is listed as 95%. Besides, the “% Phosphatase Activity (compared to DMSO) PRL-1” value in test [2] (setting [4]) was determined as 87%. Also, the “% Phosphatase Activity (compared to DMSO) PRL-3” value in test [3] (setting [4]) is 84%.

On to `CS(=O)(=O)O.Oc1ccc(C2CNCCc3c2cc(O)c(O)c3Cl)cc1` (stereo not drawn) [Fenoldopam (mesylate)], for which the “% Phosphatase Activity (compared to DMSO) PRL-2” value in test [1] (setting [4]) came out at 102%. For the same compound, the “% Phosphatase Activity (compared to DMSO) PRL-1” value in test [2] (setting [4]) turned out to be 108%. Also, in test [3] (setting [4]), the “% Phosphatase Activity (compared to DMSO) PRL-3” value stood at 96%.

For `Cn1c(COP(=O)(NCCBr)NCCBr)cnc1[N+](=O)[O-]` [TH-302], the “% Phosphatase Activity (compared to DMSO) PRL-2” value in test [1] (setting [5]) was 100%. Besides, the “% Phosphatase Activity (compared to DMSO) PRL-1” value in test [2] (setting [5]) turned out to be 91%. In test [3] (setting [5]), the “% Phosphatase Activity (compared to DMSO) PRL-3” value is recorded as 95%.

For `COCCCN1CCC(NC(=O)c2cc(Cl)c(N)c3c2OCC3)CC1` [Prucalopride], the “% Phosphatase Activity (compared to DMSO) PRL-2” value in test [1] (setting [4]) was 113%. Besides, in test [2] (setting [4]), the “% Phosphatase Activity (compared to DMSO) PRL-1” value amounted to 97%. The “% Phosphatase Activity (compared to DMSO) PRL-3” value in test [3] (setting [4]) was found to be 85%.

`Nc1nc2c(ncn2COCCO)c(=O)[nH]1` [Aciclovir]: in test [1] (setting [4]), the “% Phosphatase Activity (compared to DMSO) PRL-2” value is given as 99%. The “% Phosphatase Activity (compared to DMSO) PRL-1” value in test [2] (setting [4]) came out at 85%. The “% Phosphatase Activity (compared to DMSO) PRL-3” value in test [3] (setting [4]) worked out at 89%.

On to `CCOC(=O)[C@H](CCc1ccccc1)N[C@H]1CCc2ccccc2N(CC(=O)O)C1=O` [Benazepril HCl], for which the “% Phosphatase Activity (compared to DMSO) PRL-2” value in test [1] (setting [4]) is 80%. Besides, the “% Phosphatase Activity (compared to DMSO) PRL-1” value in test [2] (setting [4]) came to 91%. The “% Phosphatase Activity (compared to DMSO) PRL-3” value in test [3] (setting [4]) is given as 78%.

On to `CC(=O)O[C@]1(C(C)=O)CC[C@H]2[C@@H]3C=C(Cl)C4=CC(=O)[C@@H]5C[C@@H]5[C@]4(C)[C@H]3CC[C@@]21C` [Cyproterone Acetate], for which the “% Phosphatase Activity (compared to DMSO) PRL-2” value in test [1] (setting [4]) is 91%. Also, in test [2] (setting [4]), the “% Phosphatase Activity (compared to DMSO) PRL-1” value is given as 92%. The “% Phosphatase Activity (compared to DMSO) PRL-3” value in test [3] (setting [4]) is recorded as 99%.

On to `CC(=O)OCC(=O)[C@@]12OC(C)(C)O[C@@H]1C[C@H]1[C@@H]3C[C@H](F)C4=CC(=O)C=C[C@]4(C)[C@@]3(F)[C@@H](O)C[C@@]12C` [Fluocinonide], for which, in test [1] (setting [4]), the “% Phosphatase Activity (compared to DMSO) PRL-2” value is given as 92%. The “% Phosphatase Activity (compared to DMSO) PRL-1” value in test [2] (setting [4]) stood at 91%. For the same compound, the “% Phosphatase Activity (compared to DMSO) PRL-3” value in test [3] (setting [4]) was determined as 89%.

Take `CCOc1ccc(Cc2cc([C@@H]3O[C@H](SC)[C@@H](O)[C@H](O)[C@H]3O)ccc2Cl)cc1` [Sotagliflozin (LX4211)]: the “% Phosphatase Activity (compared to DMSO) PRL-2” value in test [1] (setting [5]) was 88%. Besides, the “% Phosphatase Activity (compared to DMSO) PRL-1” value in test [2] (setting [5]) is recorded as 100%. The “% Phosphatase Activity (compared to DMSO) PRL-3” value in test [3] (setting [5]) worked out at 85%.

Consider `COC(=O)c1ccc2c(c1)NC(=O)/C2=C(\Nc1ccc(N(C)C(=O)CN2CCN(C)CC2)cc1)c1ccccc1` [Nintedanib (BIBF 1120)], for which the “% Phosphatase Activity (compared to DMSO) PRL-2” value in test [1] (setting [4]) is reported as 106%. Moreover, the “% Phosphatase Activity (compared to DMSO) PRL-1” value in test [2] (setting [4]) stood at 92%. Also, the “% Phosphatase Activity (compared to DMSO) PRL-3” value in test [3] (setting [4]) came to 73%.

Regarding `OC(CCN1CCCCC1)(c1ccccc1)C1CCCCC1` (stereo not drawn) [Trihexyphenidyl hydrochloride], the “% Phosphatase Activity (compared to DMSO) PRL-2” value in test [1] was 98%. In test [2], the “% Phosphatase Activity (compared to DMSO) PRL-1” value was 100%. Moreover, in test [3], the “% Phosphatase Activity (compared to DMSO) PRL-3” value was found to be 106%.

For the compound S-Ruxolitinib (INCB018424), the “% Phosphatase Activity (compared to DMSO) PRL-2” value in test [1] (setting [4]) is reported as 127%. Also, in test [2] (setting [4]), the “% Phosphatase Activity (compared to DMSO) PRL-1” value came out at 113%. Moreover, the “% Phosphatase Activity (compared to DMSO) PRL-3” value in test [3] (setting [4]) turned out to be 104%.

For `O=C(O)CCc1nc(-c2ccccc2)c(-c2ccccc2)o1` [Oxaprozin], the “% Phosphatase Activity (compared to DMSO) PRL-2” value in test [1] (setting [4]) is 106%. Besides, the “% Phosphatase Activity (compared to DMSO) PRL-1” value in test [2] (setting [4]) was determined as 96%. Also, the “% Phosphatase Activity (compared to DMSO) PRL-3” value in test [3] (setting [4]) is reported as 71%.

In the case of `CCOC(=O)O[C@]1(C(=O)OCCl)CC[C@H]2[C@@H]3CCC4=CC(=O)C=C[C@]4(C)[C@H]3[C@@H](O)C[C@@]21C` [Loteprednol etabonate], the “% Phosphatase Activity (compared to DMSO) PRL-2” value in test [1] (setting [4]) is given as 89%. Also, the “% Phosphatase Activity (compared to DMSO) PRL-1” value in test [2] (setting [4]) is recorded as 100%. Also, the “% Phosphatase Activity (compared to DMSO) PRL-3” value in test [3] (setting [4]) was determined as 82%.

For `CN1C(C(=O)Nc2ccccn2)=C(O)c2ccccc2S1(=O)=O` [Piroxicam], in test [1] (setting [4]), the “% Phosphatase Activity (compared to DMSO) PRL-2” value came out at 76%. In addition, in test [2] (setting [4]), the “% Phosphatase Activity (compared to DMSO) PRL-1” value came out at 88%. Besides, in test [3] (setting [4]), the “% Phosphatase Activity (compared to DMSO) PRL-3” value amounted to 70%.
